The values that follow come from ChEMBL document CHEMBL1148845, “Chiral tetrahydroquinoline derivatives as potent anti-hyperalgesic agents in animal models of sustained inflammation and chronic neuropathic pain” (Bioorg Med Chem Lett, 2007).

Molecules are shown by their SMILES. Activity calls are given as the source filed them.

For data set [1], the system named is Mus musculus. The data set can be described thus: Antinociceptive effect in ip dosed mouse assessed as reduction of licking time in late phase administered before 30 mins of formalin administration. Particulars: 0.5 h.
Data set [2] relates to Mus musculus. As to the kind of experiment: Antinociceptive effect in ip dosed mouse assessed as reduction of licking time in early phase administered before 30 mins of formalin administration. The following applies: 0.5 h.
The target of data set [3] is Glutamate NMDA receptor. The data set can be described thus: Displacement of [3H]glycine from NMDA receptor in rat cerebral cortex membrane. It is filed as cell membranes.
Data set [4] concerns Mus musculus. The data set can be described thus: Antinociceptive effect in po dosed mouse assessed as reduction of licking time in late phase by formalin test. It is filed as functional.
In data set [5] the test system is Mus musculus. As to the kind of experiment: Antinociceptive effect in mouse assessed as reduction of licking time in late phase administered at 0.1 mg/kg, ip before 10 mins of formalin administration. The class given is functional. The arrangement: scale not given: the % may be the effect or the level left. Particulars: route intraperitoneal.
Data set [6] in a line: Oral bioavailability in dog at 3 mg/kg, po. The class given is ADME, organism-based, Canis lupus familiaris. The following applies: in vivo.
A short description of data set [7]: Half life in rat at 1 mg/kg, iv or 3 mg/kg, po. The class given is ADME, organism-based. Particulars: in vivo.
The nature of data set [8]: Plasma clearance in rat at 1 mg/kg, iv or 3 mg/kg, po. The class given is ADME, organism-based.
The nature of data set [9]: Oral bioavailability in rat at 3 mg/kg, po. The class given is ADME, organism-based. Particulars: in vivo.
A short description of data set [10]: Half life in dog at 1 mg/kg, iv or 3 mg/kg, po. Particulars: in vivo. The class given is ADME, organism-based, Canis lupus familiaris.
A short description of data set [11]: Plasma clearance in dog at 1 mg/kg, iv or 3 mg/kg, po. It is filed as ADME, organism-based, Canis lupus familiaris.
For data set [12], the system named is Rattus norvegicus. As to the kind of experiment: Analgesic effect in po dosed CCI rat model assessed as reduction of thermal hyperalgesia after 1 hr. The class given is functional.
The species named for data set [13] is Rattus norvegicus. The data set can be described thus: Inhibition of windup in rat spinal cord at 10 uM. It is filed as functional, organism-based.
Data set [14] can be described thus: Oral bioavailability in rat. The class given is ADME, organism-based. Particulars: in vivo.

What is called ED50 is the dose at which the effect has come halfway, by size or by number of responders. In the case of `CN1CC[C@]23c4c5ccc(O)c4O[C@H]2[C@@H](O)C=C[C@H]3[C@H]1C5` [MORPHINE], the median effective dose (ED50) in data set [1] turned out to be 0.56 mg/kg; in data set [2] it was 0.73 mg/kg.
As to `O=C([O-])C1C/C(=C2/CCCN(c3ccccc3)C2=O)c2ccc(Cl)cc2N1.[Na+]` (stereo unspecified), in [3], the “Log Ki” value was -5.71.
Consider `C[C@]12N[C@H](Cc3ccccc31)c1ccccc12` [DIZOCILPINE], for which the median effective dose (ED50) in data set [4] amounted to 0.1 mg/kg. Moreover, in data set [5], the Activity turned out to be 50%.
Regarding `O=C([O-])C1C/C(=C2/NC(=O)N(c3ccccc3)C2=O)c2ccc(Cl)cc2N1.[Na+]` (stereo unspecified), in data set [3], the “Log Ki” value is -7.8.
As a reminder, the bioavailability is dose-corrected exposure relative to a reference, in per cent. A word on the half-life: it is the time needed for the level to fall by half in the phase considered. With `O=C(/C=C1\CC(C(=O)[O-])Nc2cc(Cl)ccc21)Nc1ccccc1.[Na+]` (stereo unspecified), the values for the bioavailability in [6] and in data set [9] were 64% and 85%, respectively. Besides, in [3], the “Log Ki” value is -7.42. The results for the half-life in [7] and in data set [10] were 1.4 h and 2.4 h, respectively. The clearance amounted to 3.5 mL/min/kg in data set [8] and 1.4 mL/min/kg in data set [11].
On to `O=C([O-])C1C/C(=C2/CC(=O)N(c3ccccc3)C2=O)c2ccc(Cl)cc2N1.[Na+]` (stereo unspecified), for which the “Log Ki” value in [3] is -5.64.
Regarding `O=C([O-])[C@H]1C/C(=C2/CCN(c3ccccc3)C2=O)c2ccc(Cl)cc2N1.[Na+]`, the median effective dose (ED50) in data set [12] and in data set [4] was 0.14 mg/kg in each case. In addition, in [13], the outcome was Active.
Turning to `O=C([O-])c1[nH]c2cc(Cl)cc(Cl)c2c1/C=C1\CCN(c2ccccc2)C1=O.[Na+]`, the median effective dose (ED50) in [12] worked out at 2.95 mg/kg; in data set [4], 0.6 mg/kg. For the same molecule, the “Log Ki” value in data set [3] is recorded as -7.56.
For the molecule `O=C([O-])C1C/C(=C2/CCN(c3ccccc3)C2=O)c2ccc(Cl)cc2N1.[Na+]` (stereo unspecified), the bioavailability in data set [14] was 76%.
